Here are results for seven molecules from the NIST ThermoML archive (doi:10.1021/acs.jced.6b00655).

The conditions of series [1]: 100 kPa, Liquid, Vibrating tube method.
Series [2] can be described thus: xn = mol fraction of the nth substance listed. The note with it: 343.15 K, 100 kPa, Liquid, Vibrating tube method.

Values joined by “and” are separate entries in the source; they are usually repeats but may differ in a detail not shown here. Equal entries are not always repeated. Numbers after ± are expanded uncertainties.

By mass density is commonly meant the mass of a sample divided by its volume. For the molecule `CCCC[N+]1(C)CCCC1.O=S(=O)([N-]S(=O)(=O)C(F)(F)F)C(F)(F)F`, the mass density in series [1] (283.15 K) is 1410.45 ± 10 kg/m3 and 1407.6 ± 10 kg/m3.
Take `CCCC[N+]1(C)CCCC1.N#CN=C=[N-]` [1-butyl-1-methylpyrrolidinium dicyanamide]: the mass density in series [1] (283.15 K) was 1021.84 ± 10 kg/m3 and 1022.97 ± 10 kg/m3 and 1022.94 ± 10 kg/m3.
`CCCC[N+]1(C)CCCC1.O=S(=O)([O-])C(F)(F)F` [1-butyl-1-methylpyrrolidinium trifluoromethanesulfonate]: the mass density in series [1] (283.15 K) was 1263.28 ± 10 kg/m3 and 1263.17 ± 10 kg/m3.
Consider `CCCC[N+](C)(C)C.O=S(=O)([N-]S(=O)(=O)C(F)(F)F)C(F)(F)F` [butyltrimethylammonium bis(trifluoromethylsulfonyl)imide], for which, in series [1] (343.15 K), the mass density is 1348.32 ± 10 kg/m3 and 1346.21 ± 10 kg/m3.
Turning to `CCCC[N+](C)(CCCC)CCCC.O=S(=O)([N-]S(=O)(=O)C(F)(F)F)C(F)(F)F` [tributylmethylammonium bis((trifluoromethyl)sulfonyl)imide], the mass density in series [1] (343.15 K) is 1224.15 ± 10 kg/m3 and 1224.18 ± 10 kg/m3.
For `CCCC[N+](C)(CCCC)CCCC.O=S(=O)([N-]S(=O)(=O)C(F)(F)F)C(F)(F)F` [tributylmethylammonium bis((trifluoromethyl)sulfonyl)imide] + Cc1ccccc1C, the mass density in series [2] (x2 = 0) is recorded as 1224.15 ± 10 kg/m3; in series [2] (x2 = 0.152), 1204.93 ± 10 kg/m3; in series [2] (x2 = 0.26), 1188.05 ± 10 kg/m3; in series [2] (x2 = 0.365), 1168.37 ± 10 kg/m3; in series [2] (x2 = 0.506), 1134.17 ± 10 kg/m3; in series [2] (x2 = 0.623), 1096.91 ± 11 kg/m3. Also, the mass density in series [2] (x2 = 0.751) worked out at 1046.57 ± 11 kg/m3.
With `CCCC[N+](C)(CCCC)CCCC.O=S(=O)([N-]S(=O)(=O)C(F)(F)F)C(F)(F)F` [tributylmethylammonium bis((trifluoromethyl)sulfonyl)imide] + c1ccccc1, the mass density in series [2] (x2 = 0) is 1224.15 ± 10 kg/m3; in series [2] (x2 = 0.048), 1220.37 ± 10 kg/m3; in series [2] (x2 = 0.097) it was 1216.25 ± 10 kg/m3; in series [2] (x2 = 0.198), 1204.31 ± 10 kg/m3; in series [2] (x2 = 0.294) it was 1188.64 ± 10 kg/m3; in series [2] (x2 = 0.393) it was 1168.17 ± 10 kg/m3. Also, the mass density in series [2] (x2 = 0.506) is listed as 1139.35 ± 10 kg/m3; in series [2] (x2 = 0.596), 1112.34 ± 11 kg/m3; in series [2] (x2 = 0.701), 1076.48 ± 11 kg/m3; in series [2] (x2 = 0.738) it was 1062.44 ± 11 kg/m3; in series [2] (x2 = 0.774), 1048.36 ± 11 kg/m3; in series [2] (x2 = 0.801) it was 1037.22 ± 11 kg/m3. The values for the mass density in series [2] (x2 = 0.823), in series [2] (x2 = 0.85) and in series [2] (x2 = 0.865) were 1028.14 ± 11 kg/m3, 1016.43 ± 11 kg/m3 and 1010.24 ± 11 kg/m3, respectively.
